Data published in BigSolDB 2.1.

CC(C)C[C@H](NC(=O)OCC1c2ccccc2-c2ccccc21)C(=O)O
solubility (mole fraction)
Settings	in acetone	in acetonitrile	in ethanol	in ethyl acetate	in isopropanol	in methanol	in methyl acetate	in n-butanol	in n-propanol
283.15 K	0.0724	0.00333	0.0256	0.0468	0.0166	0.0288	0.0246	0.0198	0.0218
288.15 K	0.0773	0.00382	0.0284	0.0496	0.0185	0.033	0.0279	0.0216	0.0245
293.15 K	0.0838	0.0047	0.0324	0.0536	0.0209	0.0384	0.0318	0.0258	0.0278
298.15 K	0.0927	0.0055	0.0379	0.0607	0.0272	0.0455	0.0372	0.0295	0.0317
303.15 K	0.101	0.00689	0.0443	0.0692	0.0352	0.0543	0.0428	0.0354	0.0372
308.15 K	0.108	0.00832	0.0522	0.0782	0.0441	0.0621	0.0487	0.0456	0.0464
313.15 K	0.117	0.0104	0.0614	0.0862	0.0551	0.0771	0.0554	0.0565	0.0574
318.15 K	0.131	0.0126	0.0716	0.0961	0.0687	0.106	0.063	0.0687	0.0691
323.15 K	0.142	0.0166	0.0854	0.106	0.0844	0.137	0.0711	0.086	0.0853
